pEC50: −log10 of the molar value.
Experiments:
[1] = biological target: T1, COS-7/AMY3 (human calcitonin receptor (CTR) and RAMP3) (Homo sapiens, UniProt O60896+P30988); assay: Amylin Receptor cAMP Assay II; format: cell-based; conditions: values marked **: Amylin Receptor cAMP Assay II; COS-7/AMY3 cells, cAMP dynamic 2 kit, 30 min; read-out: Amylin Receptor cAMP Stimulation Activity: EC50
T1 construct: expressed in transfected cells; host or cells: COS-7
Text: AMYRs are heterodimers of the class B calcitonin (CT) G-protein-coupled receptor (CTR) and receptor activity-modifying proteins (RAMPs). All three RAMPs can interact with the CTR and form AMY1, AMY2, AMY3 with RAMP1, RAMP2 and RAMP3, respectively. Like other class B1 GPCRs, the CT receptor family is canonically coupled to Gs-mediated cAMP production, and measurement of cAMP accumulation has been the primary assay used to determine peptide selectivity and potency.
(§1) To optimize functional activity directed toward Gαs coupling, COS-7 cells were stably transfected with human calcitonin receptor (CTR) and RAMP3, simultaneously. 100×concentration of compound working solutions were prepared with 4-fold serial dilution in 384-well Echo LDV plate (Labcyte, Cat #LP-0200-BC). 200 nL/well 100×concentration of compound working solutions were moved to 384-well white microplate (Perkin Elmer, Cat #6007680) using Labcyte ECHO550. 1×10^5 cells/mL COS-7/AMY3 cell suspensions prepared with assay buffer [HBSS containing 20 mM HEPES (Gibco, Cat #15630-080), 0.5 mM IBMX (Sigma, Cat #15879) and 0.1% Casein (Sigma, Cat #C4765)], 20 μL cell suspensions were added to each well of previous generated assay plate which already contains 200 nL compound at 100×concentration using ThermoFisher Multidrop Combi (2000 cells/well). Seal the plate and incubate at 37° C. with 5% CO2 for 30 min.
(§2) After incubation, the cAMP assay signal was generated using cAMP dynamic 2 kit (Revvity, Cat #62AM4PEC). 10 μL cAMP-d2 working solution was added to each well, followed by 10 μL Anti-cAMP antibody-cryptate working solution which was added to each well using CERTUS FLEX LIQUID […]. The samples were then incubated at room temperature for 1 hour protected from light. the fluorescence was read at 665 and 615 nm with Reader PerkinElmer EnVision 2105. % Activity=100−(mean RLU of test sample−mean RLU of positive control)/(mean RLU of vehicle control−mean RLU of positive control)×100 Calcitonin Receptor (CTR) cAMP Assay

[2] = biological target: T2, human calcitonin receptor (CTR) (Homo sapiens, UniProt P30988); assay: Calcitonin Receptor (CTR) cAMP Assay; format: cell-based; conditions: COS7-human CTR Clone #2 stable cell line, cAMP dynamic 2 kit, 30 min; read-out: Calcitonin Receptor cAMP Stimulation Activity: EC50
T2 construct: expressed in transfected cells; host or cells: COS-7 (COS7-human CTR Clone #2)
T2 sequence (P30988 25-474): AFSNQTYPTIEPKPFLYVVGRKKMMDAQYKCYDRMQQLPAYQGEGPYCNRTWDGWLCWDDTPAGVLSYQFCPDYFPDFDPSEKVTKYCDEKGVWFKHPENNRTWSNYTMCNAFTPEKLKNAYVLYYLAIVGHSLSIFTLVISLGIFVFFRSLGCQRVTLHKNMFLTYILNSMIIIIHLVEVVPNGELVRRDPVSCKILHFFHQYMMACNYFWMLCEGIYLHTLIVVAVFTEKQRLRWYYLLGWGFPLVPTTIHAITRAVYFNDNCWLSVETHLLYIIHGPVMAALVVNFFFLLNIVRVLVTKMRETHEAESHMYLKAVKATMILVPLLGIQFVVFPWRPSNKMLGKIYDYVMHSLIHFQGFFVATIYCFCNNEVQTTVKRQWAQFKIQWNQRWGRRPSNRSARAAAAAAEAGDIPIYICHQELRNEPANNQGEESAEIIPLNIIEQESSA
Description: as §2
The calcitonin receptor (CTR) belongs to the subfamily of GPCRs known as the secretin or ‘B’ family of GPCRs. Like other class B1 GPCRs, the CT receptor family is canonically coupled to Gs-mediated cAMP production, and measurement of cAMP accumulation has been the primary assay used to determine peptide selectivity and potency.
as §1, with “to create COS7-human CTR Clone #2 stable cell line.” for “and RAMP3, simultaneously.”, “COS7-human CTR Clone #2” for “COS-7/AMY3”
as §2, with “control)×100” for “control)×100 Calcitonin Receptor (CTR) cAMP Assay”

T1 sequence (O60896 24-148, one chain of several): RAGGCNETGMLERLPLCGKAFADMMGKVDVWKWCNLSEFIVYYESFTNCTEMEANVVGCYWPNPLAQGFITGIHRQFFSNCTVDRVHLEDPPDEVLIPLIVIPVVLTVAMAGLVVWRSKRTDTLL

SMILES	pEC50 [1]	pEC50 [2]
CC(C)C1CS(=O)(=O)c2c1nc(CCC1CCOCC1)c(-c1n[nH]c(=O)o1)c2-c1cnc2c(ccn2Cc2ccc(C#N)c(F)c2)c1 (centres unmarked) [Compound 157, 2-fluoro-4-((5-(3-isopropyl-1,1-dioxido-6-(5-oxo-4,5-dihydro-1,3,4-oxadiazol-2-yl)-5-(2-(tetrahydro-2H-pyran-4-yl)ethyl)-2,3-dihydrothieno[3,2-b]pyridin-7-yl)-1H-pyrrolo[2,3-b]pyridin-1-yl)methyl)benzonitrile]	6.94	8.13
N#Cc1ccc(Cn2ccc3cc(-c4c(-c5n[nH]c(=O)o5)c(CCc5ccc(F)cc5)nc5c4c(=O)n4n5CCC4)ccc32)cc1F [Compound 158, 2-fluoro-4-((5-(2-(4-fluorophenethyl)-5-oxo-3-(5-oxo-4,5-dihydro-1,3,4-oxadiazol-2-yl)-8,9-dihydro-5H,7H-pyrazolo[1′,2′:1,2]pyrazolo[3,4-b]pyridin-4-yl)-1H-indol-1-yl)methyl)benzonitrile]	7.89	8.92
CC(c1ccc(C#N)c(F)c1)n1ccc2cc(-c3c(-c4n[nH]c(=O)o4)c(CCc4ccc(F)cc4)nc4c3c(=O)n3n4CCC3)ccc21 (centres unmarked) [Compound 159, 2-fluoro-4-[1-[5-[11-[2-(4-fluorophenyl)ethyl]-7-oxo-10-(2-oxo-3H-1,3,4-oxadiazol-5-yl)-2,6,12-triazatricyclo[6.4.0.02,6]dodeca-1(8),9,11-trien-9-yl]indol-1-yl]ethyl]benzonitrile]	7.54	8.93
CC(c1ccc(C#N)cn1)n1c(=O)oc2cc(-c3c4c(nc(CCc5ccc(F)cc5)c3-c3n[nH]c(=O)o3)[C@@H]3CCCN3C4=O)ccc21 (stereo partly drawn) [Compound 160, 6-[1-[6-[(9aS)-2-[2-(4-fluorophenyl)ethyl]-5-oxo-3-(2-oxo-3H-1,3,4-oxadiazol-5-yl)-7,8,9,9a-tetrahydropyrido[2,3-a]pyrrolizin-4-yl]-2-oxo-1,3-benzoxazol-3-yl]ethyl]pyridine-3-carbonitrile]	7.91	9.14
N#Cc1ccc(Cn2ccc3cc(-c4c(-c5n[nH]c(=O)o5)c(CCc5ccc(F)cc5)nc5c4c(=O)n4n5CCC4)cnc32)cc1F [Compound 161]	7.45	8.74
N#Cc1ccc(Cn2c(=O)oc3cc(-c4c(-c5n[nH]c(=O)o5)c(CCc5ccc(F)cc5)nc5c4c(=O)n4n5CCC4)ccc32)cc1F [Compound 162, 2-fluoro-4-((6-(2-(4-fluorophenethyl)-5-oxo-3-(5-oxo-4,5-dihydro-1,3,4-oxadiazol-2-yl)-8,9-dihydro-5H,7H-pyrazolo[1′,2′:1,2]pyrazolo[3,4-b]pyridin-4-yl)-2-oxobenzo[d]oxazol-3(2H)-yl)methyl)benzonitrile]	8.43	9.80
CC(C)C1CS(=O)(=O)c2c1nc(CCc1ccc(F)cc1)c(-c1n[nH]c(=O)o1)c2-c1ccc2c(c1)oc(=O)n2Cc1ccc(C#N)cn1 (centres unmarked) [Compound 163, 6-((6-(5-(4-fluorophenethyl)-3-isopropyl-1,1-dioxido-6-(5-oxo-4,5-dihydro-1,3,4-oxadiazol-2-yl)-2,3-dihydrothieno[3,2-b]pyridin-7-yl)-2-oxobenzo[d]oxazol-3(2H)-yl)methyl)nicotinonitrile]	7.95	9.23
O=C1c2c(nc(CCc3ccc(F)cc3)c(-c3n[nH]c(=O)o3)c2-c2ccc3c(c2)oc(=O)n3Cc2ccc(F)cn2)[C@@H]2CCCN12 [Compound 164, (S)-6-(2-(4-fluorophenethyl)-5-oxo-3-(5-oxo-4,5-dihydro-1,3,4-oxadiazol-2-yl)-7,8,9,9a-tetrahydro-5H-pyrido[2,3-a]pyrrolizin-4-yl)-3-((5-fluoropyridin-2-yl)methyl)benzo[d]oxazol-2(3H)-one]	7.40	8.37
N#Cc1cc2c(cc1F)[C@H](Nc1nccc3cc(-c4c5c(nc(CCc6ccc(F)cc6)c4-c4n[nH]c(=O)o4)[C@@H]4CCCN4C5=O)sc13)CC2 [Compound 165, (R)-6-fluoro-1-((2-((S)-2-(4-fluorophenethyl)-5-oxo-3-(5-oxo-4,5-dihydro-1,3,4-oxadiazol-2-yl)-7,8,9,9a-tetrahydro-5H-pyrido[2,3-a]pyrrolizin-4-yl)thieno[2,3-c]pyridin-7-yl)amino)-2,3-dihydro-1H-indene-5-carbonitrile]	8.17	9.27
O=C1c2c(nc(CCc3ccc(F)cc3)c(-c3n[nH]c(=O)o3)c2-c2cc3ccnc(N[C@@H]4CCc5cc(F)c(F)cc54)c3s2)[C@@H]2CCCN12 [Compound 166, 5-((S)-4-(7-(((R)-5,6-difluoro-2,3-dihydro-1H-inden-1-yl)amino)thieno[2,3-c]pyridin-2-yl)-2-(4-fluorophenethyl)-5-oxo-7,8,9,9a-tetrahydro-5H-pyrido[2,3-a]pyrrolizin-3-yl)-1,3,4-oxadiazol-2(3H)-one]	8.86	10.06
COc1c(F)ccc2c1CC[C@H]2Nc1nccc2cc(-c3c4c(nc(CCc5ccc(F)cc5)c3-c3n[nH]c(=O)o3)[C@@H]3CCCN3C4=O)sc12 [Compound 167, 5-((S)-4-(7-(((R)-5-fluoro-4-methoxy-2,3-dihydro-1H-inden-1-yl)amino)thieno[2,3-c]pyridin-2-yl)-2-(4-fluorophenethyl)-5-oxo-7,8,9,9a-tetrahydro-5H-pyrido[2,3-a]pyrrolizin-3-yl)-1,3,4-oxadiazol-2(3H)-one]	8.36	9.89
O=C1c2c(nc(CCc3ccc(F)cc3)c(-c3n[nH]c(=O)o3)c2-c2cc3ccnc(N[C@@H]4CCc5c4ccc(F)c5Cl)c3s2)[C@@H]2CCCN12 [Compound 168, 5-((S)-4-(7-(((R)-4-chloro-5-fluoro-2,3-dihydro-1H-inden-1-yl)amino)thieno[2,3-c]pyridin-2-yl)-2-(4-fluorophenethyl)-5-oxo-7,8,9,9a-tetrahydro-5H-pyrido[2,3-a]pyrrolizin-3-yl)-1,3,4-oxadiazol-2(3H)-one]	7.82	9.47
O=C1c2c(nc(CCc3ccc(F)cc3)c(-c3n[nH]c(=O)o3)c2-c2cc3ccnc(N[C@@H]4COc5ccccc54)c3s2)[C@@H]2CCCN12 [Compound 169, 5-((S)-4-(7-(((S)-2,3-dihydrobenzofuran-3-yl)amino)thieno[2,3-c]pyridin-2-yl)-2-(4-fluorophenethyl)-5-oxo-7,8,9,9a-tetrahydro-5H-pyrido[2,3-a]pyrrolizin-3-yl)-1,3,4-oxadiazol-2(3H)-one]	6.60	7.99

Reference: patent US12486269B2 (Aconcagua Bio, Inc., priority 2024, dated 2025)
